Data published in ChEMBL document CHEMBL3885861, “Open TG-GATES”.

Species: Rattus norvegicus
Test: Open TG-GATES - Regimen: Single
Type: toxicity, organism-based, Sprague-Dawley
Set-up: regimen Single, gender Male, age 6 weeks
Conditions: in vivo, po, 60 mg/kg, route gavage, dose level Middle; for APTT / Bas / Eos / Fbg / Hb / Ht / Lym / MCH / MCHC / MCV / Mono / Neu / PT / Plat / RBC / Ret / WBC: tissue Blood; for KIDNEY_L / KIDNEY_R / KIDNEY_TOTAL: tissue Kidney; for LIVER: tissue Liver; for A/G / ALP / ALT / AST / BUN / CRE / Ca / Cl / DBIL / GLC / IP / K / LDH / Na / PL / RALB / TBIL / TC / TG / TP / gamma-GTP: tissue Plasma

CCc1oc2ccccc2c1C(=O)c1cc(Br)c(O)c(Br)c1 [BENZBROMARONE] was tested, and the TERMINAL_BW (3 h) was 215.1 g, the APTT (3 h) was 17.4 s and the Bas (3 h) was 0%. It also gave an Eos (3 h) of 1%, a Fbg (3 h) of 233.2 mg/dL and a Hb (3 h) of 13.8 g/dL. The Ht (3 h) was 41.1%, the Lym (3 h) was 83% and the MCH (3 h) was 21.9 pg. For the same compound, the MCHC (3 h) was 33.7%, the MCV (3 h) was 64.9 fL and the Mono (3 h) was 6.6%. The Neu (3 h) was 9.4%, the PT (3 h) was 11.8 s and the Plat (3 h) was 99.4 x10_4/uL. For the same compound, the RBC (3 h) was 633 x10_4/ul, the Ret (3 h) was 7.5% and the WBC (3 h) was 133 x10_2/uL. The KIDNEY_L (3 h) was 1 g, the KIDNEY_R (3 h) was 1 g and the KIDNEY_TOTAL (3 h) was 1.9 g. It also gave an LIVER (3 h) of 10.6 g, an A/G (3 h) of 2.1 and an ALP (3 h) of 892.8 IU/L. It also gave an ALT (3 h) of 30.6 IU/L, an AST (3 h) of 62.4 IU/L and a BUN (3 h) of 12.8 mg/dL. For the same compound, the CRE (3 h) was 0.6 mg/dL, the Ca (3 h) was 11 mg/dL and the Cl (3 h) was 103.8 meq/L. The DBIL (3 h) was 0.064 mg/dL, the GLC (3 h) was 202.8 mg/dL and the IP (3 h) was 9.8 mg/dL. The K (3 h) was 4.8 meq/L, the LDH (3 h) was 87.4 IU/L and the Na (3 h) was 139.6 meq/L. It also gave a PL (3 h) of 147.6 mg/dL, an RALB (3 h) of 3.8 g/dL and a TBIL (3 h) of 0.3 mg/dL. It also gave a TC (3 h) of 82.6 mg/dL, a TG (3 h) of 72.8 mg/dL and a TP (3 h) of 5.7 g/dL. The gamma-GTP (3 h) was 1 IU/L, the TERMINAL_BW (6 h) was 212 g and the APTT (6 h) was 16.1 s. For the same compound, the Bas (6 h) was 0%, the Eos (6 h) was 1% and the Fbg (6 h) was 230.6 mg/dL. The Hb (6 h) was 13.5 g/dL, the Ht (6 h) was 40.2% and the Lym (6 h) was 75.6%. For the same compound, the MCH (6 h) was 21.7 pg, the MCHC (6 h) was 33.6% and the MCV (6 h) was 64.5 fL. For the same compound, the Mono (6 h) was 6.4%, the Neu (6 h) was 17.2% and the PT (6 h) was 12.2 s. For the same compound, the Plat (6 h) was 103.4 x10_4/uL, the RBC (6 h) was 624.2 x10_4/ul and the Ret (6 h) was 7.8%. For the same compound, the WBC (6 h) was 86 x10_2/uL, the KIDNEY_L (6 h) was 1 g and the KIDNEY_R (6 h) was 1 g. The KIDNEY_TOTAL (6 h) was 2 g, the LIVER (6 h) was 9.8 g and the A/G (6 h) was 2.2. For the same compound, the ALP (6 h) was 764.8 IU/L, the ALT (6 h) was 28.8 IU/L and the AST (6 h) was 58.8 IU/L. It also gave a BUN (6 h) of 9.2 mg/dL, a CRE (6 h) of 0.5 mg/dL and a Ca (6 h) of 10.3 mg/dL. For the same compound, the Cl (6 h) was 103.6 meq/L, the DBIL (6 h) was 0.016 mg/dL and the GLC (6 h) was 195 mg/dL. For the same compound, the IP (6 h) was 10.1 mg/dL, the K (6 h) was 4.8 meq/L and the LDH (6 h) was 88.8 IU/L. For the same compound, the Na (6 h) was 138.6 meq/L, the PL (6 h) was 131.4 mg/dL and the RALB (6 h) was 3.8 g/dL. The TBIL (6 h) was 0.4 mg/dL, the TC (6 h) was 74.2 mg/dL and the TG (6 h) was 79.6 mg/dL. For the same compound, the TP (6 h) was 5.6 g/dL, the gamma-GTP (6 h) was 1 IU/L and the TERMINAL_BW (9 h) was 210.8 g. The APTT (9 h) was 16.3 s, the Bas (9 h) was 0% and the Eos (9 h) was 1%. It also gave a Fbg (9 h) of 233 mg/dL, a Hb (9 h) of 13.6 g/dL and a Ht (9 h) of 40.8%. For the same compound, the Lym (9 h) was 77.6%, the MCH (9 h) was 21.9 pg and the MCHC (9 h) was 33.4%. For the same compound, the MCV (9 h) was 65.6 fL, the Mono (9 h) was 5.4% and the Neu (9 h) was 16.6%. The PT (9 h) was 12.2 s, the Plat (9 h) was 109.2 x10_4/uL and the RBC (9 h) was 622.6 x10_4/ul. It also gave a Ret (9 h) of 7.4%, a WBC (9 h) of 90.4 x10_2/uL and a KIDNEY_L (9 h) of 0.9 g. The KIDNEY_R (9 h) was 1 g, the KIDNEY_TOTAL (9 h) was 1.9 g and the LIVER (9 h) was 9.1 g. For the same compound, the A/G (9 h) was 2.1, the ALP (9 h) was 731.6 IU/L and the ALT (9 h) was 29 IU/L. It also gave an AST (9 h) of 59.8 IU/L, a BUN (9 h) of 10.4 mg/dL and a CRE (9 h) of 0.6 mg/dL. The Ca (9 h) was 10.1 mg/dL, the Cl (9 h) was 104.4 meq/L and the DBIL (9 h) was 0.004 mg/dL. It also gave a GLC (9 h) of 187.8 mg/dL, an IP (9 h) of 11.1 mg/dL and a K (9 h) of 4.9 meq/L. The LDH (9 h) was 85 IU/L, the Na (9 h) was 138 meq/L and the PL (9 h) was 112.4 mg/dL. For the same compound, the RALB (9 h) was 3.9 g/dL, the TBIL (9 h) was 0.3 mg/dL and the TC (9 h) was 67.4 mg/dL. It also gave a TG (9 h) of 37.6 mg/dL, a TP (9 h) of 5.7 g/dL and a gamma-GTP (9 h) of 1.2 IU/L. It also gave a TERMINAL_BW (24 h) of 222.2 g, an APTT (24 h) of 16.1 s and a Bas (24 h) of 0%. For the same compound, the Eos (24 h) was 1.2%, the Fbg (24 h) was 223.2 mg/dL and the Hb (24 h) was 13.8 g/dL. The Ht (24 h) was 41.1%, the Lym (24 h) was 77.2% and the MCH (24 h) was 22.4 pg. The MCHC (24 h) was 33.7%, the MCV (24 h) was 66.5 fL and the Mono (24 h) was 9%. The Neu (24 h) was 12.6%, the PT (24 h) was 12.3 s and the Plat (24 h) was 105.9 x10_4/uL. The RBC (24 h) was 617.8 x10_4/ul, the Ret (24 h) was 7.5% and the WBC (24 h) was 80 x10_2/uL. For the same compound, the KIDNEY_L (24 h) was 1 g, the KIDNEY_R (24 h) was 1 g and the KIDNEY_TOTAL (24 h) was 2.1 g. The LIVER (24 h) was 11.9 g, the A/G (24 h) was 2.2 and the ALP (24 h) was 861.2 IU/L. It also gave an ALT (24 h) of 31.6 IU/L, an AST (24 h) of 63.4 IU/L and a BUN (24 h) of 18.6 mg/dL. For the same compound, the CRE (24 h) was 0.6 mg/dL, the Ca (24 h) was 10.3 mg/dL and the Cl (24 h) was 104.8 meq/L. The DBIL (24 h) was 0.016 mg/dL, the GLC (24 h) was 183.2 mg/dL and the IP (24 h) was 7.9 mg/dL. For the same compound, the K (24 h) was 5 meq/L, the LDH (24 h) was 111.2 IU/L and the Na (24 h) was 138.2 meq/L. The PL (24 h) was 130.6 mg/dL, the RALB (24 h) was 4.1 g/dL and the TBIL (24 h) was 0.4 mg/dL. The TC (24 h) was 68.2 mg/dL, the TG (24 h) was 111 mg/dL and the TP (24 h) was 5.9 g/dL. For the same compound, the gamma-GTP (24 h) was 1.4 IU/L.
